US20100003246A1, “Novel heterocyclic compounds and uses therof” (priority 2008, published 2010)

Key:
Capan1 cells = assay: Cell Titer-Glo cell viability assay, Capan1; type: cell-based; conditions: Homo sapiens, CAPAN-1, 120 h; Pancreatic cell line Capan1; 5 days compound incubation; 2000 cells/well
Experimental: (§1) The Cell Titer-Glo® assay (Promega) was used to measure cell viability. Cells were plated into 96-well black walled tissue culture plates in complete growth media. The plates were then incubated under standard growth conditions of 37° C. and 5% CO2 until the cells had attached to the plates (3-6 hours), then compounds were added to the cells. Compounds were serially diluted in DMSO using 3-fold dilutions and then diluted in complete media before being added to the cells (final DMSO concentration on cells was 0.1-0.2%).
(§2) After compound incubation, the cell plates were equilibrated to room temperature, culture media was removed, and 200 uL of Cell Titer-Glo® reagent mix was added to each well (1:1 mixture of Cell Titer-Glo® reagent and complete growth media, equilibrated to room temperature). The plates were shaken for 5-10 minutes, then sealed and luminescence was measured (using Trilux plate reader, Perkin Elmer).
(§3) Analysis of data was done by subtracting the background luminescence value from each data point, then determining the percent inhibition of total growth (as determined by the values for DMSO-treated wells).
(§4) To determine the EC50 for each compound, the data were fit using the Levenburg Marquardt algorithm, represented in the XLfit software as y=A+((B−A)/(1+((C/x)̂D))), the four parameter dose response model 205, where A is the minimum Y value, B is the maximum Y value, C is the Log IC50 and D is the slope.

SU86.86 cells = assay: Cell Titer-Glo cell viability assay, SU86.86; type: cell-based; conditions: Homo sapiens, SU.86.86, 120 h; Pancreatic cell line SU86.86; 5 days compound incubation; 1000 cells/well
Experimental: as §1, §2, §3, §4

Malme3M cells = assay: Cell Titer-Glo cell viability assay, Malme3M; type: cell-based; conditions: Homo sapiens, Malme-3M, 120 h; Melanoma cell line Malme3M; 5 days compound incubation; 1000 cells/well
Experimental: as §1, §2, §3, §4

A375 cells = assay: Cell Titer-Glo cell viability assay, A375; type: cell-based; conditions: Homo sapiens, A-375, 72 h; Melanoma cell line A375; 3 days compound incubation; 1000 cells/well
Experimental: as §1, §2, §3, §4

G361 cells = assay: Cell Titer-Glo cell viability assay, G361; type: cell-based; conditions: Homo sapiens, G-361, 96 h; Melanoma cell line G361; 4 days compound incubation; 1000 cells/well
Experimental: as §1, §2, §3, §4

K1 cells = assay: Cell Titer-Glo cell viability assay, K1; type: cell-based; conditions: 96 h; Papillary thyroid cell line K1; 4 days compound incubation; 1500 cells/well
Experimental: as §1, §2
(§5) Analysis of data was done by subtracting the background luminescence value from each data point, then determining the percent inhibition of total growth (as determined by the values for DMSO-treated wells). […]

PC3MM cells = assay: Cell Titer-Glo cell viability assay, PC3MM; type: cell-based; conditions: 120 h; Prostate cell line PC3MM; 5 days compound incubation; 1500 cells/well
Experimental: as §1, §2, §5

b-Raf(V600E) = molecular target: T1, b-Raf(V600E) (Homo sapiens, UniProt P15056, V600E); assay: Raf/Mek Amplified Luminescence Proximity Homogeneous Assay (Alpha Screen), b-Raf(V600E); type: biochemical; conditions: mutant b-Raf(V600E), read-out: mut-b-RAF (IC50 in uM)
T1 construct: made in house
T1 sequence (P15056 whole entry V600E): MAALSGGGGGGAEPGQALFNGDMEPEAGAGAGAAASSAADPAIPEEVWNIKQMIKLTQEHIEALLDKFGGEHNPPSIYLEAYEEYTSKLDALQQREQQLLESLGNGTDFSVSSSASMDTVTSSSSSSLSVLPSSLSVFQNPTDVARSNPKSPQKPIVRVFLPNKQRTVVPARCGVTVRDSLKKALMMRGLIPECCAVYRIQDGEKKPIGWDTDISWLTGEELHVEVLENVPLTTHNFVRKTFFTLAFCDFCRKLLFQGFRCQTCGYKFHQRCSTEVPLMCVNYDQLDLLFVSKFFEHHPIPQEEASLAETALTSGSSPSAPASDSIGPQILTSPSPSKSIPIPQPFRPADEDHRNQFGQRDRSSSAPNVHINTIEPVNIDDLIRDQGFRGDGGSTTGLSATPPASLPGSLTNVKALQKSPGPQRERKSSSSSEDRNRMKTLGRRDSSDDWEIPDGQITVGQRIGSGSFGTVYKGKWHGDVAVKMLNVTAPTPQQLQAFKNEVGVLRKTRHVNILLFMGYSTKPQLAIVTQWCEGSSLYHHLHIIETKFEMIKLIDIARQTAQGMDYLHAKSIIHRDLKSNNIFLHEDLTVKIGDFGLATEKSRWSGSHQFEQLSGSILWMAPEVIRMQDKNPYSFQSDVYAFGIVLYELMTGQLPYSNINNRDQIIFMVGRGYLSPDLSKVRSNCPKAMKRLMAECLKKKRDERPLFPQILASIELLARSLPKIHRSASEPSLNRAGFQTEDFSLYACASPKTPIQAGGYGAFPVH
Method in brief: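 Active b-Raf(V600E) (~4 pM) pre-incubated 60 min at room temperature with compound and kinase-dead biotinylated Mek (~10 nM) in Tris pH 7.5, MgCl2, BSA, DTT; ATP-started reaction ran 3 h, EDTA-stopped. Phospho-MEK detected by anti-p-MEK AlphaScreen luminescence; IC50 by non-linear regression.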

| SMILES | IC50 (b-Raf(V600E)) | EC50 (Capan1 cells) | EC50 (SU86.86 cells) | also measured |
| --- | --- | --- | --- | --- |
| COc1cc(-c2[nH]c(-c3ccccc3)nc2-c2ccncc2)cnc1N [Compound 1, 3-methoxy-5-(2-phenyl-4-(pyridin-4-yl)-1H-imidazol-5-yl)pyridin-2-amine] | – | 570 nM | 116 nM | EC50 (Malme3M cells): 429 nM; EC50 (A375 cells): 376 nM; EC50 (G361 cells): 70 nM |
| COCC(=O)N[C@@H](C)CNc1nccc(-c2[nH]c(-c3ccc(F)cc3)nc2-c2cnc(N)c(OC)n2)n1 [Compound 5, (S)-N-(1-(4-(4-(5-amino-6-methoxypyrazin-2-yl)-2-(4-fluorophenyl)-1H-imidazol-5-yl)pyrimidin-2-ylamino)propan-2-yl)-2-methoxyacetamide] | – | – | 354 nM | EC50 (K1 cells): 892 nM |
| COc1cc(Nc2nccc(-c3[nH]c(C(C)(C)C)nc3-c3cnc(N)c(OC)n3)n2)ccn1 [Compound 9, 4-(4-(5-amino-6-methoxypyrazin-2-yl)-2-tert-butyl-1H-imidazol-5-yl)-N-(2-methoxypyridin-4-yl)pyrimidin-2-amine] | – | – | – | EC50 (PC3MM cells): 250 nM |
| COc1cc(-c2nc(-c3ccc(F)cc3)[nH]c2-c2ccncc2)cnc1N [Compound 66, 5-(2-(4-fluorophenyl)-5-(pyridin-4-yl)-1H-imidazol-4-yl)-3-methoxypyridin-2-amine] | 0.0006 µM | – | – | EC50 (Malme3M cells): 816 nM; EC50 (A375 cells): 623 nM; EC50 (G361 cells): 1020 nM |
| COCC(=O)NCCNc1nccc(-c2nc(-c3ccc(F)cc3)[nH]c2-c2cnc(N)c(OC)c2)n1 [Compound 81, N-(2-(4-(5-(6-amino-5-methoxypyridin-3-yl)-2-(4-fluorophenyl)-1H-imidazol-4-yl)pyrimidin-2-ylamino)ethyl)-2-methoxyacetamide] | 0.0001 µM | 319 nM | – | EC50 (Malme3M cells): 194 nM; EC50 (A375 cells): 547 nM; EC50 (G361 cells): 305 nM |
| COCC(=O)NCCNc1nccc(-c2[nH]c(-c3ccc(C(F)(F)F)cc3)nc2-c2cnc(N)c(OC)c2)n1 [Compound 85, N-(2-(4-(4-(6-amino-5-methoxypyridin-3-yl)-2-(4-(trifluoromethyl)phenyl)-1H-imidazol-5-yl)pyrimidin-2-ylamino)ethyl)-2-methoxyacetamide] | 0.0002 µM | 163 nM | 111 nM | – |

Further lines, with some results ahead:

| IC50 (b-Raf(V600E)) | SMILES | EC50 (Capan1 cells) | EC50 (SU86.86 cells) | also measured |
| --- | --- | --- | --- | --- |
| 0.001 µM | COc1cc(-c2[nH]c(-c3ccc(F)cc3F)nc2-c2ccncc2)cnc1N [Compound 106, 5-(2-(2,4-difluorophenyl)-4-(pyridin-4-yl)-1H-imidazol-5-yl)-3-methoxypyridin-2-amine] | 674 nM | 118 nM | – |
| 0.0001 µM | COCC(=O)N[C@@H](C)CNc1nccc(-c2[nH]c(-c3ccc(F)cc3)nc2-c2cnc(N)c(OC)c2)n1 [Compound 163, (S)-N-(1-(4-(4-(6-amino-5-methoxypyridin-3-yl)-2-(4-fluorophenyl)-1H-imidazol-5-yl)pyrimidin-2-ylamino)propan-2-yl)-2-methoxyacetamide] | 535 nM | 28 nM | EC50 (PC3MM cells): 83 nM |
| 0.0003 µM | COCC(=O)N[C@@H](C)CNc1nccc(-c2[nH]c(-c3ccc(C(F)(F)F)cc3)nc2-c2cnc(N)c(OC)c2)n1 [Compound 198, (S)-N-(1-(4-(4-(6-amino-5-methoxypyridin-3-yl)-2-(4-(trifluoromethyl)phenyl)-1H-imidazol-5-yl)pyrimidin-2-ylamino)propan-2-yl)-2-methoxyacetamide] | – | – | EC50 (K1 cells): 787 nM |
| 0.003 µM | COCC(=O)N[C@@H](C)CNc1nccc(-c2oc(-c3ccc(C(F)(F)F)cc3)nc2-c2cnc(N)c(OC)c2)n1 [Example 14] | – | – | – |
| 0.0019 µM | COc1cc(-c2sc(-c3ccccc3)nc2-c2ccncc2)cnc1N [Example 15, 3-methoxy-5-(2-phenyl-4-(pyridine-4-yl)thiazol-5-yl)pyridine-2-amine] | – | – | – |
| 0.0143 µM | COc1cc(-c2nc(-c3ccc(F)cc3)sc2-c2ccncc2)cnc1N [Example 16, 5-(2-(4-fluorophenyl)-5-(pyridin-4-yl)thiazol-4-yl)-3-methoxypyridin-2-amine] | – | – | – |
